Data taken from patent publication US20150258197A1, “EUTECTIC ISOMETHEPTENE MUCATE” (TONIX PHARMA HOLDINGS LIMITED, priority 2014, published 2015).

Experiments:
Format in all cases: physicochemical
[1] = DSC/XRPD of binary mixtures of isometheptene mucate and mannitol (eutectic formation); conditions: binary mixtures at different ratios
Protocol: Because mannitol is a common excipient in solid drug formulations, it was examined for compatibility with racemic isometheptene mucate and investigated using DSC and the interactions occurring were assessed. […] To confirm the formation of a eutectic and to characterize its physical properties, several binary mixtures at different ratios of racemic isometheptene mucate and excipient were prepared and analyzed by DSC and by XRPD. The eutectic formation improved the cohesion between the racemic isometheptene mucate and excipient particles and assured better physical linking between the two.
In order to confirm the eutectic formation and to characterize its physical properties, several binary mixtures at different ratios of racemic isometheptene mucate-excipient were prepared and analyzed by DSC and by X-ray powder diffraction (XRPD). […] For each DSC heating curve, the onset temperature and the enthalpy were evaluated both for the eutectic contribute and for the excess of component. The recorded values were plotted and a phase diagram between the two components was obtained with a characteristic profile of phase diagrams of eutectic mixtures. […]
Aliquots of racemic isometheptene mucate API and mannitol were weighed in the ratios described below and ground in an agate mortar, and the homogeneous mixtures subsequently analyzed. […]

[2] = DSC/XRPD of 75:25 mixtures of (R)-isometheptene salts and β-mannitol; conditions: for Physical interaction with β-mannitol: 75:25 salt:mannitol, dry-granulated or wet-granulated, DSC confirmed by XRPD; for Eutectic formation with mannitol: (R)-isometheptene salts other than mucate, 75:25 with β-mannitol
Protocol: Thermal analytical techniques were used to analyze mixtures of several (R)-isometheptene salts and β-mannitol in a ratio of 75:25. (R)-isometheptene salts tested were as follows: (R)-isometheptene maleate, (R)-isometheptene malate, and (R)-isometheptene tartrate. Based on the thermal events recorded for each component and for the mixtures, the analyses were carried out by investigating the peaks recorded by differential scanning calorimetry (DSC) in mixture between (R)-isometheptene mucate and the excipients. Differences in thermal profiles between the single compound and the related mixture were evaluated.
Aliquots of (R)-isometheptene salts and each excipient were weighed in a ratio of 1:1 (unless specified otherwise) and ground in an agate mortar with (wet-granulation) or without (dry-granulation) a small amount of water. The homogeneous mixtures then were analyzed.
(§1) The DSC heating curves were obtained with a TA 821 DSC Mettler instrument under the following conditions:
(§2) Heating rate: 10° C./min Ambient: Nitrogen 30 mL/min Sample holder: normal open aluminum pan Temperature range: from 25° C. to 250° C. Instrument calibration: Indium sample purity 99.999%
(§3) X-ray powder diffraction (XRPD) tests were performed with the ULTIMA IV instrument (Rigaku), laying the sample on a static sample holder. The X-ray focusing slit has a variable width, interlocked with the q value. The X-ray tube has a copper target, with a current intensity of 40 mA and a voltage of 40 kV. Radiation was generated by the Cockcroft-Walton method, and was constituted by Kα1 (1.540562 Å) and Kα2 (1.544398 Å). The analytical conditions were:
(§4) Fixed Time; sampling width 0.02 deg, scanning rate 1.3 s/step, 2 q range 3.35 deg and sample holder; amorphous glass equiangular 9200/2G, 0.2 mm deep. The sample was pressed with a glass plate.

[3] = Excipient compatibility of racemic isometheptene mucate by DSC/XRPD (1:1 mixtures); conditions: 1:1 weight ratio, ground in agate mortar, DSC (XRPD for mannitol)
Protocol: (§5) Thermal analytical techniques were used to assess the compatibility of a drug product containing racemic isometheptene mucate. The compatibility assessment was carried out between the racemic isometheptene mucate and a number of possible excipients in a 1:1 weight ratio. Based on the thermal events recorded for each component and for the mixtures, the analyses were carried out by investigating the peaks recorded by differential scanning calorimetry (DSC) in mixture between racemic isometheptene mucate and the excipients. Differences in thermal profiles between the single compound and the related mixture obtained after milling the products in an agate mortar were evaluated.
Aliquots of racemic isometheptene mucate and each excipient were weighed in a ratio of 1:1 (unless specified otherwise) and ground in an agate mortar. The homogeneous mixtures then were analyzed.
as §1, §2
as §3, with “K+1” for “Kα1”
as §4

[4] = Excipient compatibility of (R)-isometheptene mucate by DSC/XRPD (1:1 mixtures); conditions: 1:1 weight ratio, ground in agate mortar, DSC
Protocol: as §5, with “mucate (API).” for “mucate.”
Aliquots of (R)-isometheptene mucate and each excipient were weighed in a ratio of 1:1 (unless specified otherwise) and ground in an agate mortar. The homogeneous mixtures then were analyzed.
as §1, §2, §3, §4

| Compound | Physical interaction with β-mannitol [2] | Eutectic formation with mannitol [2] | Excipient reactions with (R)-isometheptene mucate, Mixture 1:1 [4] | Excipient reactions with API (racemic isometheptene mucate), Mixture 1:1 [3] | further results |
| --- | --- | --- | --- | --- | --- |
| CNC(C)CCC=C(C)C.CNC(C)CCC=C(C)C.O=C(O)[C@@H](O)[C@H](O)[C@H](O)[C@@H](O)C(=O)O (racemic) [racemic isometheptene mucate, reference compound] | – | – | – | – | Interaction with mannitol (eutectic vs adduct) [1]: only a physical eutectic formation |
| CN[C@H](C)CCC=C(C)C.O=C(O)CC(O)C(=O)O [(R)-isometheptene malate] | No physical interaction was observed | do not form a eutectic composition | – | – | – |
| CN[C@H](C)CCC=C(C)C.O=C(O)/C=C\C(=O)O [(R)-isometheptene maleate] | No physical interaction was observed | do not form a eutectic composition | – | – | – |
| CN[C@H](C)CCC=C(C)C.O=C(O)C(O)C(O)C(=O)O [(R)-isometheptene tartrate] | No physical interaction was observed | do not form a eutectic composition | – | – | – |
| OC[C@@H](O)[C@@H](O)[C@H](O)[C@H](O)CO [Mannitol SD200] | – | – | Physical interaction (complex) | – | Excipient reactions with API (racemic isometheptene mucate), Mixture 1:1 ([3]; listed as mannitol SD200): Physical interaction was observed; Excipient reactions with (R)-isometheptene mucate, Mixture 1:1 ([4]; listed as mannitol SD200): Physical interaction was observed |
| OC[C@@H](O)[C@@H](O)[C@H](O)[C@H](O)CO [Mannitol] | – | – | – | Physical interaction (complex) | Excipient reactions with API (racemic isometheptene mucate), Mixture 1:1 ([3]; listed as mannitol): Physical interaction was observed |
| CCCCCCCCCCCCCCCCCC(=O)O [Stearic acid] | – | – | – | YES | Excipient reactions with API (racemic isometheptene mucate), Mixture 1:1 ([3]; listed as stearic acid): physical interaction was observed |
| Isomalt | – | – | No interaction reported | No interaction reported | – |
| Magnesium stearate | – | – | YES | YES | Excipient reactions with API (racemic isometheptene mucate), Mixture 1:1 ([3]; listed as magnesium stearate): small physical interaction was observed; Excipient reactions with (R)-isometheptene mucate, Mixture 1:1 ([4]; listed as magnesium stearate): small physical interaction was observed |
